This passage reports Activity results from ChEMBL document CHEMBL3046469, “Fungicidal Activities of 2-(Substituted Phenoxymethyl)phenyl-2-methoxyiminoacaetamide Derivatives” (1998).

Holding throughout (type): functional
Test [1] has as its system Pseudoperonospora cubensis. The experiment in a line: Fungicidal activity against Pseudoperonospora cubensis assessed as cucumber downy mildew disease control at 7.8 ppm foliar application 24 hr before inoculation onto the abaxial(untreated) surface of leaf by preventive manner.
In test [2] the test system is Thanatephorus cucumeris. The experiment in a line: Fungicidal activity against Thanatephorus cucumeris assessed as rice sheath blight disease control at 125 ppm foliar application for 24 hr before inoculation at 26 +/- 2 degC measured after 5 days by preventive manner.
Test [3] has as its system Pyricularia oryzae. The test can be described thus: Fungicidal activity against Magnaporthe oryzae assessed as rice blast disease control at 7.8 ppm foliar application for 24 hr before inoculation at 27 +/- 2 degC measured after 5 days by preventive manner.
For test [4], the system named is Botrytis cinerea. The test can be described thus: Fungicidal activity against Botryotinia fuckeliana assessed as cucumber gray mold disease control at 7.8 ppm foliar application […] at 22 +/- 2 degC by preventive manner.
Test [5] deals with Blumeria graminis f. sp. tritici. The test can be described thus: Fungicidal activity against Blumeria graminis f. sp. tritici assessed as wheat powdery mildew disease control at 2 ppm foliar application for 48 hr before inoculation by preventive manner.
The subject of test [6] is Podosphaera fuliginea. The test can be described thus: Fungicidal activity against Podosphaera fuliginea assessed as cucumber powdery mildew control at 7.8 ppm foliar application 24 hr before inoculation at 23 +/- 2 degC by preventive manner.
The test system of test [7] is Pseudoperonospora cubensis. The experiment in a line: Fungicidal activity against Pseudoperonospora cubensis assessed as cucumber downy mildew disease control at 7.8 ppm foliar application 24 hr before inoculation onto the adaxial(treated) surface of leaf by preventive manner.
Test [8] has as its system Podosphaera fuliginea. The experiment in a line: Fungicidal activity against Podosphaera fuliginea assessed as cucumber powdery mildew control at 2 ppm foliar application 24 hr before inoculation at 23 +/- 2 degC by preventive manner.
Test [9] concerns Thanatephorus cucumeris. The test can be described thus: Fungicidal activity against Thanatephorus cucumeris assessed as rice sheath blight disease control at 31.3 ppm foliar application for 24 hr before inoculation at 26 +/- 2 degC measured after 5 days by preventive manner.
Test [10] relates to Pseudoperonospora cubensis. The test can be described thus: Fungicidal activity against Pseudoperonospora cubensis assessed as cucumber downy mildew disease control at 2 ppm foliar application 24 hr before inoculation onto the adaxial(treated) surface of leaf by preventive manner.
For test [11], the system named is Pyricularia oryzae. The experiment in a line: Fungicidal activity against Magnaporthe oryzae assessed as rice blast disease control at 2 ppm foliar application for 24 hr before inoculation at 27 +/- 2 degC measured after 5 days by preventive manner.
The subject of test [12] is Pseudoperonospora cubensis. The experiment in a line: Fungicidal activity against Pseudoperonospora cubensis assessed as cucumber downy mildew disease control at 125 ppm foliar application 24 hr before inoculation onto the abaxial(untreated) surface of leaf by preventive manner.
In test [13] the test system is Pyricularia oryzae. The test can be described thus: Fungicidal activity against Magnaporthe oryzae assessed as rice blast disease control at 125 ppm foliar application for 24 hr before inoculation at 27 +/- 2 degC measured after 5 days by preventive manner.
The test system of test [14] is Podosphaera fuliginea. The test can be described thus: Fungicidal activity against Podosphaera fuliginea assessed as cucumber powdery mildew control at 125 ppm foliar application 24 hr before inoculation at 23 +/- 2 degC by preventive manner.
The test system of test [15] is Pseudoperonospora cubensis. The experiment in a line: Fungicidal activity against Pseudoperonospora cubensis assessed as cucumber downy mildew disease control at 31.3 ppm foliar application 24 hr before inoculation onto the adaxial(treated) surface of leaf by preventive manner.
For test [16], the system named is Botrytis cinerea. The experiment in a line: Fungicidal activity against Botryotinia fuckeliana assessed as cucumber gray mold disease control at 125 ppm foliar application […] at 22 +/- 2 degC by preventive manner.
Test [17] deals with Blumeria graminis f. sp. tritici. The test can be described thus: Fungicidal activity against Blumeria graminis f. sp. tritici assessed as wheat powdery mildew disease control at 125 ppm foliar application for 48 hr before inoculation by preventive manner.
The test system of test [18] is Pseudoperonospora cubensis. The experiment in a line: Fungicidal activity against Pseudoperonospora cubensis assessed as cucumber downy mildew disease control at 31.3 ppm foliar application 24 hr before inoculation onto the abaxial(untreated) surface of leaf by preventive manner.
The subject of test [19] is Blumeria graminis f. sp. tritici. The test can be described thus: Fungicidal activity against Blumeria graminis f. sp. tritici assessed as wheat powdery mildew disease control at 7.8 ppm foliar application 48 24 hr before inoculation by preventive manner.
Test [20] concerns Pyricularia oryzae. The experiment in a line: Fungicidal activity against Magnaporthe oryzae assessed as rice blast disease control at 31.3 ppm foliar application for 24 hr before inoculation at 27 +/- 2 degC measured after 5 days by preventive manner.
Test [21] has as its system Botrytis cinerea. The experiment in a line: Fungicidal activity against Botryotinia fuckeliana assessed as cucumber gray mold disease control at 2 ppm foliar application […] at 22 +/- 2 degC by preventive manner.
The test system of test [22] is Botrytis cinerea. The test can be described thus: Fungicidal activity against Botryotinia fuckeliana assessed as cucumber gray mold disease control at 31.3 ppm foliar application […] at 22 +/- 2 degC by preventive manner.
The subject of test [23] is Podosphaera fuliginea. The experiment in a line: Fungicidal activity against Podosphaera fuliginea assessed as cucumber powdery mildew control at 31.3 ppm foliar application 24 hr before inoculation at 23 +/- 2 degC by preventive manner.
For test [24], the system named is Blumeria graminis f. sp. tritici. The experiment in a line: Fungicidal activity against Blumeria graminis f. sp. tritici assessed as wheat powdery mildew disease control at 31.3 ppm foliar application for 48 hr before inoculation by preventive manner.
Test [25] has as its system Podosphaera fuliginea. The experiment in a line: Fungicidal activity against Podosphaera fuliginea assessed as cucumber powdery mildew control at 7.8 ppm foliar application 24 hr after inoculation at 23 +/- 2 degC by curative manner.
For test [26], the system named is Botrytis cinerea. The experiment in a line: Fungicidal activity against Botryotinia fuckeliana assessed as cucumber gray mold disease control at 125 ppm foliar application […] at 22 +/- 2 degC by curative manner.
Test [27] relates to Pyricularia oryzae. The test can be described thus: Fungicidal activity against Magnaporthe oryzae assessed as rice blast disease control at 125 ppm foliar application for 24 hr after inoculation at 27 +/- 2 degC measured after 5 days by curative manner.
In test [28] the test system is Podosphaera fuliginea. The test can be described thus: Fungicidal activity against Podosphaera fuliginea assessed as cucumber powdery mildew control at 125 ppm foliar application 24 hr after inoculation at 23 +/- 2 degC by curative manner.
Test [29] concerns Blumeria graminis f. sp. tritici. The experiment in a line: Fungicidal activity against Blumeria graminis f. sp. tritici assessed as wheat powdery mildew disease control at 125 ppm foliar application for 48 hr after inoculation by curative manner.

Regarding `CNC(=O)/C(=N/OC)c1ccccc1COc1cccc(C(F)(F)F)c1`, the Activity in [1], in test [2], in test [3], in test [4], in [5] and in [6] was 90% in each case. Besides, the Activity in test [7] was found to be 90%.
As for `CNC(=O)/C(=N/OC)c1ccccc1COc1ccccc1C`, the Activity in test [8], in [9], in test [10], in test [4], in test [5] and in test [11] was 90% throughout. The Activity in test [12] is given as 90%.
As for `CNC(=O)/C(=N/OC)c1ccccc1COc1ccccc1OC(C)C`, the Activity was 90% in test [13]; 90% in test [14]; 90% in test [15]; less than 90% in test [2]; less than 90% in [16]; less than 90% in test [12]. Besides, the Activity in test [17] is less than 90%.
As to `CNC(=O)/C(=N/OC)c1ccccc1COc1ccc(OC(C)C)cc1`, the Activity in test [9], in [15], in [4], in [6], in test [18] and in test [19] was 90% throughout. Besides, the Activity in test [20] worked out at 90%.
With `CNC(=O)/C(=N/OC)c1ccccc1COc1cccc(-c2ccccc2)c1`, the Activity in [8], in test [1], in test [9], in [10], in test [19] and in test [11] was 90% in each case. The Activity in test [21] stood at 90%.
Take `CNC(=O)/C(=N/OC)c1ccccc1COc1ccc(C#N)cc1`: the Activity in test [13] is reported as less than 90%; in [14], less than 90%; in test [15] it was 90%; in [2], less than 90%; in [22], 90%; in test [12], 90%. Moreover, in test [17], the Activity is recorded as 90%.
For the compound `CNC(=O)/C(=N/OC)c1ccccc1COc1cccc(N(C)C)c1`, the Activity is recorded as 90% in [13]; less than 90% in test [14]; 90% in [15]; less than 90% in test [2]; 90% in test [22]; less than 90% in test [12]. Besides, the Activity in test [17] is recorded as less than 90%.
Consider `CNC(=O)/C(=N/OC)c1ccccc1COc1ccc(Cl)cc1Cl`, for which the Activity in [8] was 90%; in test [2] it was less than 90%; in test [5], 90%; in [7], 90%; in [18] it was 90%; in test [20], 90%. The Activity in test [21] was 90%.
Regarding `CNC(=O)/C(=N/OC)c1ccccc1COc1cccc(C)c1C`, the Activity in test [23], in [10], in test [24], in test [2], in test [22] and in [11] was 90% throughout. In addition, the Activity in test [12] is listed as 90%.
On to `CNC(=O)/C(=N/OC)c1ccccc1COc1ccc(C)c(C)c1`, for which the Activity in test [10], in test [2], in test [3], in [4], in test [5] and in test [6] was 90% in each case. Moreover, the Activity in test [12] turned out to be 90%.
Take `CNC(=O)/C(=N/OC)c1ccccc1COc1ccc(Cl)cc1C`: the Activity in [8], in test [1], in [9], in [10], in [3] and in [5] was 90% throughout. Moreover, the Activity in [21] stood at 90%.
As for `CNC(=O)/C(=N/OC)c1ccccc1COc1ccc(Cl)c(C)c1`, the Activity is listed as 90% in [1]; 90% in [10]; less than 90% in test [2]; 90% in test [3]; 90% in [4]; 90% in [5]. The Activity in test [6] came out at 90%.
In the case of `CNC(=O)/C(=N/OC)c1ccccc1COc1c(Cl)cc(Cl)cc1Cl`, the Activity in [13] is recorded as 90%; in test [14], 90%; in test [24], 90%; in [15], 90%; in test [2], less than 90%; in test [22] it was 90%. For the same compound, the Activity in test [12] is listed as less than 90%.
Regarding `CO/N=C(/C(=O)N(C)C)c1ccccc1COc1cc(C)ccc1C`, the Activity in [23] is recorded as 90%; in [25] it was 90%; in test [16], 90%; in [26] it was less than 90%; in test [20], 90%; in test [27], 90%.
For `CO/N=C(/C(=O)NN)c1ccccc1COc1cc(C)ccc1C`, the Activity in test [13] is listed as 90%; in [14] it was 90%; in [16] it was less than 90%; in test [28], less than 90%; in [27], less than 90%.
Turning to `CO/N=C(/C(=O)NOC)c1ccccc1COc1cc(C)ccc1C`, the Activity in test [13] is on record as 90%; in test [14], less than 90%; in test [25], 90%; in test [16] it was 90%; in test [26], less than 90%; in [27] it was less than 90%.
Regarding `CNC(=O)/C(=N\OC)c1ccccc1COc1ccccc1`, the Activity in test [13] is less than 90%; in test [14], 90%; in [29], less than 90%; in [16], less than 90%; in test [26], less than 90%; in [28] it was less than 90%. Also, the results for the Activity in test [17] and in test [27] were 90% and less than 90%, respectively.
Consider `CNC(=O)/C(=N\OC)c1ccccc1COc1ccc(Cl)cc1`, for which the Activity is less than 90% in test [13]; 90% in test [14]; less than 90% in test [29]; less than 90% in [16]; less than 90% in [26]; less than 90% in test [28]. Further, the results for the Activity in test [17] and in test [27] were 90% and less than 90%, respectively.
As to `CNC(=O)/C(=N\OC)c1ccccc1COc1cccc(OC(C)C)c1`, the Activity is recorded as 90% in test [13]; 90% in test [23]; 90% in test [29]; 90% in test [16]; less than 90% in test [26]; 90% in [28]. For the same compound, the Activity in test [17] and in test [27] was less than 90% each time.
Turning to `CNC(=O)/C(=N\OC)c1ccccc1COc1ccc(-c2ccccc2)cc1`, the Activity in [13] was less than 90%; in test [23], 90%; in [29], 90%; in test [16] it was less than 90%; in test [26] it was less than 90%; in test [28], less than 90%. Besides, the Activity in [17] and in test [27] was less than 90% in each case.
